Consider two molecules from US10201556B2, “Combination for use in treating diseases or conditions associated with melanoma, or treating diseases or conditions associated with activated B-raf pathway” (InteRNA Technologies B.V., priority 2012, dated 2019).

Where only a bound is given, the exact number is not on record here.

In data set [1] the test system is M376 melanoma cell line. Put plainly: Anti-proliferative effect of small molecules, MTS assay. It counts as cell-based. Conditions: M376, in vivo acquired resistance. On the procedure: (§1) The anti-proliferative effect of small molecules in melanoma cell lines was determined with V600E BRAF inhibitor, vemurafenib (PLX-4032, 51267, Selleck) and MEK inhibitor, selumetinib (AZD-6244, S1008, Selleck). For each cell line optimal growth conditions were determined prior to the experiment. Cells were plated in a 96-well plate at 3000 cells per well (100 uL) and were grown at 37 C, 5% CO2. Small molecule mix (50 uL per well) was made for each concentration in medium. Cells were treated in triplicate 24 hours after plating. After 72 hours medium was replaced and viability was measured with the MTS assay (Promega) according to manufacturer's instructions. Cell viability inhibition is normalized against loading control (0.1% DMSO) and GraphPad Prism was used to fit the curve and calculate GI50 values.
(§2) A375 cells were obtained from the Hubrecht Institute (Utrecht, The Netherlands); SKMEL-28, A2058 and RPMI-7951 were from the ATCC; SKMEL-57 was a gift from Dr. Patricia Groenen (Radboud University Nijmegen Medical Centre, The Netherlands); for cell line characteristics of M249, M249-AR4, M233 and M376 see (Atefi et al. 2011). A375-R, with in vitro acquired resistance to vemurafenib, was established in our lab by clonal selection of cells continually exposed to 1 μM vemurafenib. A375, A375-R, SKMEL-28, A2058 and SKMEL-57 were grown in DMEM GlutaMAX™-I (Gibco®), all other cell lines in RPMI-1640 (Gibco®). Media was supplemented with 10% FBS (Sigma), and cells were maintained in a humidified 37° C. incubator (Thermo Scientific) with 5% CO2. Vemurafenib (PLX4032; Selleck Chemicals) was diluted in DMSO to a stock concentration of 10 mM.
Background: Tetrazolium dyes change colour on reduction, which living cells bring about.

Data set [2] concerns M233 melanoma cell line. The data set is described as above. Type of data set: cell-based. The following applies: M233, vemurafenib resistant. On the procedure: as §1, §2
The test system of data set [3] is SKMEL-57 melanoma cell line. Described as above. Type of data set: cell-based. Conditions: SKMEL-57, vemurafenib sensitive. The protocol: as §1, §2
For data set [4], the system named is SKMEL-28 melanoma cell line. Described as above. Type of data set: cell-based. Conditions: Homo sapiens, SK-MEL-28, SKMEL-28, vemurafenib sensitive. On the procedure:
as §1, §2

The subject of data set [5] is A2058 melanoma cell line. Described as above. Type of data set: cell-based. The following applies: Homo sapiens, A2058, intrinsic resistance, 72 hours. On the procedure: as §1
For data set [6], the system named is M249 melanoma cell line. The description is as above. It counts as cell-based. The following applies: M249, 72 h, M249, vemurafenib sensitive. On the procedure:
as §1

The test system of data set [7] is RPMI-7951 melanoma cell line. Described as above. It counts as cell-based. Conditions: Homo sapiens. The protocol: as §1
For data set [8], the system named is M249-R4 melanoma cell line. The data set is described as above. It counts as cell-based. The following applies: M249-R4 (M249-AR4), in vitro acquired resistance, 72 hours. The protocol:
as §1

The test system of data set [9] is A375Hu melanoma cell line. The data set is described as above. Conditions: Homo sapiens, A-375, 72 h, A375Hu (A375), vemurafenib sensitive. Type of data set: cell-based. The protocol:
as §1

The subject of data set [10] is 3′UTR of RRM2. Put plainly: 3′UTR Luciferase assay in HeLa cells. Type of data set: cell-based. The following applies: 10 nM mimic, 24 hrs. On the procedure:
(§3) The 3′UTR sequences (Table 11) were synthesized by IDT Technologies, and cloned into psiCHECK™-2 (Promega). HeLa cells (5×10^4) were seeded in 24-well plates, and the next day transfected with 100 ng/well 3′UTR psiCHECK™-2 construct and 10 nM miR-3157 mimics, or control miRNA using Lipofectamine 2000 Transfection Reagent (Invitrogen). After 24 hrs cells were lysed using Passive Lysis Buffer and luciferase activity was measured using the Dual-Luciferase Reporter Assay System (Promega) and the Glomax-Multi Detection system (Promega) in a 96-well format according to the manufacturer's protocol. The Renilla luciferase signal was normalized to background Firefly luciferase, and changes in Renilla luciferase activity in the miR-3157 transfected cells calculated relative to the Renilla signal in control mimic transfected cells.

The subject of data set [11] is 3′UTR of ERK1. Put plainly: 3′UTR Luciferase assay in HeLa cells. It counts as cell-based. The following applies: 10 nM mimic, 24 hrs. On the procedure:
as §3

The test system of data set [12] is 3′UTR of AURKB. Put plainly: 3′UTR Luciferase assay in HeLa cells. Type of data set: cell-based. Conditions: 10 nM mimic, 24 hrs. The protocol:
as §3

In data set [13] the test system is ERK1. As to the kind of experiment: Western blotting of ERK1 protein levels. It counts as cell-based, human. On the procedure: Transfection was performed as described in Example 4 in 6-well format. Proteins were isolated using RIPA buffer (50 mM Tris pH 8.0, 150 mM NaCL, 1% NP-40, 0.5% Sodium deoxycholate, 0.1% SDS), supplemented with Protease Inhibitor Cocktail (Sigma) and Halt™ Phosphatase Inhibitor Cocktail (Pierce/Thermo Scientific). Fifteen μg protein was loaded on a 12% Mini-PROTEAN® TGX™ Precast Gel (Bio-Rad), and proteins were transferred to Immun-Blot PVDF Membrane (Bio-Rad). Membranes were blocked in 5% milk or 5% BSA in TBS-T, and incubated O/N at 4° C. with primary antibodies against α-tubulin (1:5000), BRAF, pERK1/2, CDK4, RRM2 (all 1:1000), BCL-2 (1:500) (Santa Cruz), total-ERK1/2 (1:2000), BIRC5, AURKB (1:1000) (Cell Signaling), ERK1 (1:2000) (GeneTex). After incubation with appropriate secondary antibodies and western blot chemiluminescence substrate ECL (Pierce/Thermo Scientific), membranes were exposed to CL-XPosure Film (Pierce/Thermo Scientific).
On the technique in general: A western blot detects proteins with antibodies after separation by electrophoresis.

Broadly, the GI50 is the concentration giving 50% growth inhibition. Read a low GI50 as greater sensitivity of the cells. Take `CCCS(=O)(=O)Nc1ccc(F)c(C(=O)c2c[nH]c3ncc(-c4ccc(Cl)cc4)cc23)c1F` [Vemurafenib, N-(3-{[5-(4-chlorophenyl)-1H-pyrrolo[2,3-b]pyridin-3-yl]carbonyl}-2,4-difluorophenyl)propane-1-sulfonamide]: the 50% growth inhibitory concentration (GI50) in [1] was above 10000 nM; in data set [2], above 10000 nM; in [3], around 800 nM; in data set [4], around 600 nM; in data set [5] it was above 10000 nM; in data set [6], around 300 nM. The GI50 is above 10000 nM in data set [7] (RPMI-7951, intrinsic resistance, 72 hours, MTS); above 10000 nM in [8]; around 100 nM in data set [9]. In addition, the cytotoxicity at 3 µM in data set [7] (RPMI-7951, 3 μM vemurafenib (FIG. 15a), read-out: reduction of cell viability) is around 20%.
Turning to “hsa-miR-3157-5p: mature miRNA mimic, SEQ ID NO 6 UUCAGCCAGGCUAGUGCAGUCU (listed as RNA, chemistry not given here)”, the “luciferase activity, RRM2 3′UTR with mutated miR-3157 binding site” value in data set [10] is listed as “remained unaffected”. For the same molecule, the “luciferase activity, RRM2 3′UTR unmodified” value in [10] (relative to control mimic) is given as “reduced luciferase activity”. Further, the “luciferase activity, ERK1 3′UTR with mutated miR-3157 binding site” value in [11] is “remained unaffected”. Also, the “luciferase activity, ERK1 3′UTR unmodified” value in data set [11] (relative to control mimic) is “reduced luciferase activity”. Further, in data set [12], the “luciferase activity, AURKB 3′UTR with mutated miR-3157 binding site” value is “remained unaffected”. Also, the “luciferase activity, AURKB 3′UTR unmodified” value in data set [12] (relative to control mimic) is “reduced luciferase activity”. Further, the ERK1 protein levels entry in [13] (A375 cells, increasing concentrations of mimic (FIG. 12c)) is reported as “most pronounced”; in data set [13] (A2058, M249, M249-AR4 and M376, increasing concentrations of mimic (FIG. 14a)) it was “not very strongly affected”.
